Here are results for one compound from US20040076974A1, “Liver necrosis predictive genes” (priority 2002, published 2004).

Where two headings read alike, the source gives them in different places.

For this series, the system named is Sprague Dawley rats. The note with it: for Liver Necrosis / Score (histopathology liver necrosis severity score): rat, intraperitoneal; for Liver Necrosis: 72 hours after treatment; for Score (histopathology liver necrosis severity score): 72 hours, 1 = not remarkable, 2 and higher increasing severity. In a few lines: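 Toxicity calls (necrosis present or absent at 72 h) and histopathology scores were correlated with tissue gene expression from Crl:CD Sprague Dawley rats. Animals, usually 3 treated with compound by i.p. route and 3 given vehicle, were killed at 6, 24 or 72 h and tissues frozen immediately in liquid nitrogen.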

Take `CCC1(c2ccccc2)C(=O)NC(=O)NC1=O` [phenobarbital]: the “Liver Toxicity Necrosis Classification” value is given as “no” (72 h, dose 20); “no” (72 h, dose 80); “no” (compound-dose group at 72 h, dose 20); “no” (compound-dose group at 72 h, dose 80); “no” (compound-dosegroup at 72 h, dose 20); “no” (compound-dosegroup at 72 h, dose 80). Besides, the “Liver Necrosis” value reads like this: (dose 20 mg/kg) “no”; (dose 80 mg/kg) “no”. Also, the “Score (histopathology liver necrosis severity score)” value runs as follows: (dose 20 mg/kg) 1; (dose 80 mg/kg) 1.
